Patent publication US12077503B2, “Substituted cyclic amides and their use as herbicides” (FMC CORPORATION, priority 2015, dated 2024)

Experiments:
Experiment in all cases: Test C preemergence
Assay type in all cases: in vivo
Details in all cases: scale 0 to 100, 0 no effect, 100 complete control
[1] = tested on: pigweed (Amaranthus retroflexus)
Description: (§1) Seeds of plant species selected from blackgrass (Alopecurus myosuroides), ryegrass, Italian (Italian ryegrass, Lolium multiflorum), wheat (winter wheat, Triticum aestivum), Galium (catchweed bedstraw, Galium aparine), corn (Zea mays), crabgrass, large (large crabgrass, Digitaria sanguinalis), foxtail, giant (giant foxtail, Setaria faberii), johnsongrass (Sorghum halepense), lambsquarters (Chenopodium album), morningglory (Ipomoea coccinea), nutsedge, yellow (yellow nutsedge, Cyperus esculentus), pigweed (Amaranthus retroflexus), ragweed (common ragweed, Ambrosia elatior), soybean (Glycine max), barnyardgrass (Echinochloa crus-galli), oilseed rape (Brassica napus), waterhemp (common waterhemp, Amaranthus rudis) and velvetleaf (Abutilon theophrasti) were planted into a blend of loam soil and sand and treated preemergence with test chemicals formulated in a non-phytotoxic solvent mixture which included a surfactant.
(§2) At the same time, plants selected from these crop and weed species and also Kochia (Kochia scoparia), oat, wild (wild oat, Avena fatua), and chickweed (common chickweed, Stellaria media) were planted in pots containing Sunshine Redi-Earth® planting medium comprising spaghnum peat moss, vermiculite, starter nutrients and dolomitic limestone and treated with postemergence applications of test chemicals formulated in the same manner. Plants ranged in height from 2 to 18 cm (1- to 4-leaf stage) for postemergence treatments. Treated plants and controls were maintained in a greenhouse for 13 to 15 d, after which time all species were compared to controls and visually evaluated. Plant response ratings, summarized in Table C, are based on a scale of 0 to 100 where 0 is no effect and 100 is complete control. A dash (-) response means no test result.

[2] = tested on: foxtail, giant (giant foxtail, Setaria faberii)
Description: as §1, §2

[3] = tested on: ragweed (common ragweed, Ambrosia elatior)
Description: as §1, §2

[4] = tested on: crabgrass, large (large crabgrass, Digitaria sanguinalis)
Description: as §1, §2

[5] = tested on: ryegrass, Italian (Italian ryegrass, Lolium multiflorum)
Description: as §1, §2

corn (Zea mays) = tested on: corn (Zea mays)
Description: as §1, §2

[6] = tested on: oilseed rape (Brassica napus)
Description: as §1, §2

[7] = tested on: Galium (catchweed bedstraw, Galium aparine)
Description: as §1, §2

[8] = tested on: lambsquarters (Chenopodium album)
Description: as §1, §2

[9] = tested on: morningglory (Ipomoea coccinea)
Description: as §1, §2

soybean (Glycine max) = tested on: soybean (Glycine max)
Description: as §1, §2

[10] = tested on: blackgrass (Alopecurus myosuroides)
Description: as §1, §2

[11] = tested on: wheat (winter wheat, Triticum aestivum)
Description: as §1, §2

[12] = tested on: waterhemp (common waterhemp, Amaranthus rudis)
Description: as §1, §2

[13] = tested on: barnyardgrass (Echinochloa crus-galli)
Description: as §1, §2

[14] = tested on: nutsedge, yellow (yellow nutsedge, Cyperus esculentus)
Description: as §1, §2

[15] = tested on: velvetleaf (Abutilon theophrasti)
Description: as §1, §2

**Q.** How did the “Plant response rating, Pigweed” value ([1]; 31 g ai/ha) turn out when `CN1CC(c2ccc(C(F)(F)F)c(F)c2)C(C(=O)Nc2ccccc2F)C1=O` (stereo not drawn) [Compound 399] was run?
**A.** 70

**Q.** And the “Plant response rating, Pigweed” value ([1]; 62 g ai/ha)?
**A.** 75

**Q.** What about the “Plant response rating, Pigweed” value ([1]; 125 g ai/ha) of the same compound?
**A.** 90

**Q.** And the “Plant response rating, Pigweed” value ([1]; 250 g ai/ha)?
**A.** 95

**Q.** And the “Plant response rating, Foxtail, Giant” value ([2]; 31 g ai/ha)?
**A.** 95

**Q.** And the “Plant response rating, Foxtail, Giant” value ([2]; 62 g ai/ha)?
**A.** 95

**Q.** What about the “Plant response rating, Foxtail, Giant” value ([2]; 125 g ai/ha) of the same compound?
**A.** 98

**Q.** And the “Plant response rating, Foxtail, Giant” value ([2]; 250 g ai/ha)?
**A.** 98

**Q.** And the “Plant response rating, Ragweed” value ([3]; 31 g ai/ha)?
**A.** 50

**Q.** And the “Plant response rating, Ragweed” value ([3]; 62 g ai/ha)?
**A.** 50

**Q.** What about the “Plant response rating, Ragweed” value ([3]; 125 g ai/ha) of the same compound?
**A.** 65

**Q.** And the “Plant response rating, Ragweed” value ([3]; 250 g ai/ha)?
**A.** 80

**Q.** What about the “Plant response rating, Crabgrass, Large” value ([4]; 31 g ai/ha) of the same compound?
**A.** 98

**Q.** What about the “Plant response rating, Crabgrass, Large” value ([4]; 62 g ai/ha) of the same compound?
**A.** 98

**Q.** And the “Plant response rating, Crabgrass, Large” value ([4]; 125 g ai/ha)?
**A.** 100

**Q.** What about the “Plant response rating, Crabgrass, Large” value ([4]; 250 g ai/ha) of the same compound?
**A.** 100

**Q.** And the “Plant response rating, Ryegrass, Italian” value ([5]; 62 g ai/ha)?
**A.** 50

**Q.** And the “Plant response rating, Ryegrass, Italian” value ([5]; 125 g ai/ha)?
**A.** 75

**Q.** What about the “Plant response rating, Ryegrass, Italian” value ([5]; 250 g ai/ha) of the same compound?
**A.** 50

**Q.** What about the “Plant response rating, Corn” value (corn (Zea mays); 31 g ai/ha) of the same compound?
**A.** 35

**Q.** And the “Plant response rating, Corn” value (corn (Zea mays); 62 g ai/ha)?
**A.** 40

**Q.** What about the “Plant response rating, Corn” value (corn (Zea mays); 125 g ai/ha) of the same compound?
**A.** 65

**Q.** What about the “Plant response rating, Corn” value (corn (Zea mays); 250 g ai/ha) of the same compound?
**A.** 60

**Q.** What about the “Plant response rating, Oilseed Rape” value ([6]; 31 g ai/ha) of the same compound?
**A.** 35

**Q.** And the “Plant response rating, Oilseed Rape” value ([6]; 62 g ai/ha)?
**A.** 30

**Q.** What about the “Plant response rating, Oilseed Rape” value ([6]; 125 g ai/ha) of the same compound?
**A.** 70

**Q.** What about the “Plant response rating, Oilseed Rape” value ([6]; 250 g ai/ha) of the same compound?
**A.** 85

**Q.** And the “Plant response rating, Galium” value ([7]; 31 g ai/ha)?
**A.** 80

**Q.** What about the “Plant response rating, Galium” value ([7]; 62 g ai/ha) of the same compound?
**A.** 85

**Q.** And the “Plant response rating, Galium” value ([7]; 125 g ai/ha)?
**A.** 90

**Q.** What about the “Plant response rating, Galium” value ([7]; 250 g ai/ha) of the same compound?
**A.** 90

**Q.** What about the “Plant response rating, Lambsquarters” value ([8]; 31 g ai/ha) of the same compound?
**A.** 90

**Q.** And the “Plant response rating, Lambsquarters” value ([8]; 62 g ai/ha)?
**A.** 85

**Q.** What about the “Plant response rating, Lambsquarters” value ([8]; 125 g ai/ha) of the same compound?
**A.** 85

**Q.** What about the “Plant response rating, Lambsquarters” value ([8]; 250 g ai/ha) of the same compound?
**A.** 98

**Q.** What about the “Plant response rating, Morningglory” value ([9]; 31 g ai/ha) of the same compound?
**A.** 40

**Q.** And the “Plant response rating, Morningglory” value ([9]; 62 g ai/ha)?
**A.** 40

**Q.** And the “Plant response rating, Morningglory” value ([9]; 125 g ai/ha)?
**A.** 30

**Q.** And the “Plant response rating, Morningglory” value ([9]; 250 g ai/ha)?
**A.** 55

**Q.** And the “Plant response rating, Soybean” value (soybean (Glycine max); 62 g ai/ha)?
**A.** 0

**Q.** And the “Plant response rating, Soybean” value (soybean (Glycine max); 125 g ai/ha)?
**A.** 0

**Q.** What about the “Plant response rating, Soybean” value (soybean (Glycine max); 250 g ai/ha) of the same compound?
**A.** 0

**Q.** What about the “Plant response rating, Blackgrass” value ([10]; 31 g ai/ha) of the same compound?
**A.** 50

**Q.** And the “Plant response rating, Blackgrass” value ([10]; 62 g ai/ha)?
**A.** 80

**Q.** And the “Plant response rating, Blackgrass” value ([10]; 125 g ai/ha)?
**A.** 70

**Q.** What about the “Plant response rating, Blackgrass” value ([10]; 250 g ai/ha) of the same compound?
**A.** 90

**Q.** And the “Plant response rating, Wheat” value ([11]; 62 g ai/ha)?
**A.** 15

**Q.** What about the “Plant response rating, Wheat” value ([11]; 125 g ai/ha) of the same compound?
**A.** 80

**Q.** What about the “Plant response rating, Wheat” value ([11]; 250 g ai/ha) of the same compound?
**A.** 75

**Q.** And the “Plant response rating, Waterhemp” value ([12]; 62 g ai/ha)?
**A.** 80

**Q.** And the “Plant response rating, Waterhemp” value ([12]; 125 g ai/ha)?
**A.** 90

**Q.** And the “Plant response rating, Waterhemp” value ([12]; 250 g ai/ha)?
**A.** 98

**Q.** What about the “Plant response rating, Barnyardgrass” value ([13]; 31 g ai/ha) of the same compound?
**A.** 95

**Q.** And the “Plant response rating, Barnyardgrass” value ([13]; 62 g ai/ha)?
**A.** 98

**Q.** What about the “Plant response rating, Barnyardgrass” value ([13]; 125 g ai/ha) of the same compound?
**A.** 100

**Q.** What about the “Plant response rating, Barnyardgrass” value ([13]; 250 g ai/ha) of the same compound?
**A.** 98

**Q.** What about the “Plant response rating, Nutsedge, Yellow” value ([14]; 31 g ai/ha) of the same compound?
**A.** 0

**Q.** What about the “Plant response rating, Nutsedge, Yellow” value ([14]; 62 g ai/ha) of the same compound?
**A.** 0

**Q.** And the “Plant response rating, Nutsedge, Yellow” value ([14]; 125 g ai/ha)?
**A.** 0

**Q.** And the “Plant response rating, Nutsedge, Yellow” value ([14]; 250 g ai/ha)?
**A.** 0

**Q.** What about the “Plant response rating, Velvetleaf” value ([15]; 62 g ai/ha) of the same compound?
**A.** 20

**Q.** And the “Plant response rating, Velvetleaf” value ([15]; 125 g ai/ha)?
**A.** 50

**Q.** What about the “Plant response rating, Velvetleaf” value ([15]; 250 g ai/ha) of the same compound?
**A.** 60
